Where a name gives a salt, the structure may show the parent alone.

Data set [1] has as its target T1, cloned human 5-HT1A receptors (Homo sapiens, UniProt P08908).
T1 construct: expressed in transfected cells
T1 sequence (P08908 1-422): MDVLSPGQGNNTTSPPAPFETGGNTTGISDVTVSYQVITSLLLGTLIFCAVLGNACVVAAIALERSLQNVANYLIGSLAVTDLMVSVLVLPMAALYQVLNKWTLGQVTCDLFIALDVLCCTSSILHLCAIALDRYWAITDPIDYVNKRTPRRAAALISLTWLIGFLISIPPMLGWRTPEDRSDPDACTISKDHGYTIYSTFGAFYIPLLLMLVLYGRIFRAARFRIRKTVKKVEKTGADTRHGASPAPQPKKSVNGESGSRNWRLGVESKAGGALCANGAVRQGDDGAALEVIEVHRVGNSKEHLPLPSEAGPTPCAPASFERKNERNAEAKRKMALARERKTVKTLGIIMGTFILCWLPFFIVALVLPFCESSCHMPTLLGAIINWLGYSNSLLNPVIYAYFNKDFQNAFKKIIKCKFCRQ
The data set can be described thus: 35S-GTPγS binding assay, antagonist activity at 5-HT1A receptors. To be noted: reversal of the effects of the standard agonist 8-OHDPAT; for IC50: read-out: 5-HT1A Function IC50. Type of data set: biochemical. As to the method:
Antagonist activity at 5-HT1A receptors was established by using a ^35S-GTPγS binding assay similar to that used by Lazareno and Birdsall (Br. J. Pharmacol. 109: 1120, 1993), in which the test compound's ability to affect the binding of ^35S-GTPγS to membranes containing cloned human 5-HT1A receptors was determined. Agonists produce an increase in binding whereas antagonists produce no increase but rather reverse the effects of the standard agonist 8-OHDPAT. The test compound's maximum inhibitory effect is represented as the Imax, while its potency is defined by the IC50.
In general terms: GTPγS is a poorly hydrolysed GTP analogue; its binding reports G protein activation.

Data set [2] deals with T2, human 5-HT1A receptors (Homo sapiens, UniProt P08908).
T2 construct: expressed in transfected cells; host or cells: CHO cells, stably transfected
T2 sequence (P08908 1-422): T1 sequence (P08908 1-422)
The data set can be described thus: [3H] 8-OHDPAT displacement from the 5-HT1A receptor in transfected CHO cells. Type of data set: binding. The text has this:
High affinity for the serotonin 5-HT1A receptor was established by testing the claimed compound's ability to displace [^3H] 8-OHDPAT (dipropylaminotetralin) from the 5-HT1A serotonin receptor following a modification of the procedure of Hall et al., J. Neurochem. 44, 1685 (1985) which utilizes CHO cells stably transfected with human 5-HT1A receptors.

Data set [3] addresses T3, serotonin transporter (Rattus norvegicus, UniProt P31652).
T3 construct: displace ^3H-paroxetine from male rat frontal cortical membranes; from tissue; host or cells: male rat frontal cortex membranes
The data set can be described thus: 3H-paroxetine displacement, affinity for the serotonin transporter. Type of data set: binding.

T3 sequence (P31652 whole entry): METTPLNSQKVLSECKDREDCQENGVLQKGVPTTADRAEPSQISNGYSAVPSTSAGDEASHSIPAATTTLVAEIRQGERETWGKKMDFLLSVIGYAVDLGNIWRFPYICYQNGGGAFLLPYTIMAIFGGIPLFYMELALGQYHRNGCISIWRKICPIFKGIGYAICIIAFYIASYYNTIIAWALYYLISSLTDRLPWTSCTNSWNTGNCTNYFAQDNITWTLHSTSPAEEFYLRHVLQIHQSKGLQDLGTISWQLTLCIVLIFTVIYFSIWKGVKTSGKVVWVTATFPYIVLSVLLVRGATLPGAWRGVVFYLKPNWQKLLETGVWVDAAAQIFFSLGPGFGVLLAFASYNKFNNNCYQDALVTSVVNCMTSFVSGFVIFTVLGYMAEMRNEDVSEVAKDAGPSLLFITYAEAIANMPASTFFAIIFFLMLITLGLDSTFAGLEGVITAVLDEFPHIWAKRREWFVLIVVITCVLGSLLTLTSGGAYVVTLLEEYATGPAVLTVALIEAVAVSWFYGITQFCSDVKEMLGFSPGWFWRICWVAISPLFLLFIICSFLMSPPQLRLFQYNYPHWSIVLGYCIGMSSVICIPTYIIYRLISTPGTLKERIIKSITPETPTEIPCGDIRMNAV

The term melting point denotes the temperature, or range, at which the solid turns liquid. On to `Cc1nc2ccc3c(c2o1)OC(CN1CC=C(c2c[nH]c4cc(F)ccc24)CC1)CO3` (stereo not shown), for which the melting point is 188 to 190 °C.
As usually defined, the IC50 is the point on the concentration scale where inhibition reaches its midpoint. What is called Ki is the dissociation constant of the complex between target and ligand, obtained from inhibition or displacement. Low values mean tighter binding, high ones weaker binding. `C1=C(c2c[nH]c3ccccc23)CCN(CC2COc3ccc4ncoc4c3O2)C1` (stereo not shown) [Example 1, 8-[4-(1H-Indol-3-yl)-3,6-dihydro-2H-pyridin-1-ylmethyl]-7,8-dihydro-1,6,9-trioxa-3-aza-cyclopenta[a]naphthalene] had a melting point of 223 to 224 °C. Further, in data set [1], the “5-HT1A Function Imax (maximum inhibitory effect)” value came out at 45 and the IC50 was 334 nM. In addition, the Ki in data set [2] stood at 10.3 nM. In data set [3], this molecule came in with a Ki of 4 nM.
`Cc1nc2ccc3c(c2o1)OC(CN1CC=C(c2c[nH]c4c(F)cccc24)CC1)CO3` (stereo not shown) returned a melting point of 208 to 210 °C.
Consider `Cc1nc2ccc3c(c2o1)OC(CN1CC=C(c2c[nH]c4ccc(C#N)cc24)CC1)CO3` (stereo not shown) (as salt: fumarate) (hydrate or solvate) [Example 4, 3-[1-(2-Methyl-7,8-dihydro-1,6,9-trioxa-3-aza-cyclopenta[a]naphthalen-8-ylmethyl)-1,2,3,6-tetrahydro-pyridin-4-yl]-1H-indole-5-carbonitrile], for which the melting point is 119 °C.
As for `Cc1nc2ccc3c(c2o1)OC(CN1CC=C(c2c[nH]c4ccc(C#N)cc24)CC1)CO3` (stereo not shown) [Example 4, 3-[1-(2-Methyl-7,8-dihydro-1,6,9-trioxa-3-aza-cyclopenta[a]naphthalen-8-ylmethyl)-1,2,3,6-tetrahydro-pyridin-4-yl]-1H-indole-5-carbonitrile], in data set [1], the “5-HT1A Function Imax (maximum inhibitory effect)” value was 100. For the same molecule, in data set [1], the IC50 was 115 nM. For the same molecule, the Ki worked out at 9.56 nM in data set [2] and 1.68 nM in data set [3].
The molecule `Cc1nc2ccc3c(c2o1)OC(CN1CC=C(c2c[nH]c4ccc(F)cc24)CC1)CO3` (stereo not shown) [Example 2, 8-[4-(5-Fluoro-1H-indol-3-yl)-3,6-dihydro-2H-pyridin-1-ylmethyl]-2-methyl-7,8-dihydro-1,6,9-trioxa-3-aza-cyclopenta[a]naphthalene] had a melting point of 95 °C. Also, in data set [1], the “5-HT1A Function Imax (maximum inhibitory effect)” value is listed as 100 and the IC50 was determined as 180 nM. In data set [2], this molecule yielded a Ki of 5.43 nM. In data set [3], this molecule showed a Ki of 2.25 nM.
Molecule `Cc1nc2ccc3c(c2o1)OC(CN1CC=C(c2c[nH]c4ccccc24)CC1)CO3` (stereo not shown) [Example 3, 8-[4-(1H-Indol-3-yl)-3,6-dihydro-2H-pyridin-1-ylmethyl]-2-methyl-7,8-dihydro-1,6,9-trioxa-3-aza-cyclopenta[a]naphthalene] returned a melting point of 196 °C. Besides, in data set [1], the “5-HT1A Function Imax (maximum inhibitory effect)” value is reported as 100 and the IC50 turned out to be 282 nM. This molecule showed a Ki in data set [2] of 7.56 nM. In addition, the inhibition constant Ki in data set [3] came to 3.83 nM.

(Values after patent publication US6617334B2, “Antidepressant azaheterocyclylmethyl derivatives of 7,8-dihydro-1,6,9-trioxa-3-aza-cyclopenta[a]naphthalene” (Wyeth, priority 2001, dated 2003).)
